One experiment deals with Influenza A virus. Put plainly: Antiviral activity against Influenza A virus containing Matrix protein 2 V27A mutant by plaque reduction assay. The experiment is classed as functional, organism-based. (Plaques are areas of infected cells; plaque reduction assays count them against a control.)
A further experiment concerns the target Matrix protein 2 (Influenza A virus, UniProt P06821, V27A). Put plainly: Inhibition of Influenza A virus Matrix protein 2 V27A mutant.

By IC50 is commonly meant the concentration needed to halve the response being measured. The low end stands for inhibition by little substance, the high end for a need for much substance.

With `CN1CCC2(C1)C1CC3CC(C1)CC2C3` (configuration not stated) [SPIROAMANTADINE], the IC50 worked out at 1000 nM in the experiment on Influenza A virus and 300 nM against Matrix protein 2.

Source of the values: ChEMBL document CHEMBL2163212, “Antivirals targeting influenza A virus” (J Med Chem, 2012).
